Measurements reported in patent publication US20160137982A1, “P38 MAPK INHIBITOR-CONTAINING MEDIUM AND METHOD FOR OSTEOGENIC DIFFERENTIATION” (TAMPEREEN YLIOPISTO, priority 2013, published 2016).

Assays:
[1] = test system: human adipose stem cells (hASCs); assay: Quantitative alkaline phosphatase (ALP) activity of hASCs, normalized to DNA, as early osteogenic marker; assay type: cell-based
Description: (§1) The study was conducted in accordance with the ethics committee of the Pirkanmaa Hospital District, Tampere, Finland (R03058). ASCs were isolated from subcutaneous adipose tissue samples obtained with written informed consent from 4 female donors (age, 44±7 years) undergoing elective surgical procedures in the Department of Plastic Surgery, Tampere University Hospital, Tampere, Finland. Isolation of hASCs from adipose tissue samples was carried out by using a mechanical and enzymatic method. The adipose tissue was minced manually into small fragments and digested with collagenase NB 6 GMP Grade (SERVA Electrophoresis GmbH, Heidelberg, Germany) in a water bath at 37° C. under shaking conditions. The digested tissue was centrifuged and filtered in sequential steps through a 100-μm poresize filter to separate the ASCs from the surrounding tissue. Cells were expanded in T75 flasks and passaged after reaching 80% confluency. Expansion was done in DMEM/F-12 1:1 (Life Technologies, Gibco, Carlsbad, Calif., USA) supplemented with 1% l-analyl-l-glutamine (GlutaMAX I; Life Technologies, Gibco), 1% antibiotics (p/s; 100 U/ml penicillin, 0.1 mg/ml streptomycin; Lonza, BioWittaker, Verviers, Belgium) and 10% HS (PAA Laboratories). ASCs were detached by using TrypLE Select (LifeTechnologies, Gibco). Cell surface marker profile (FIG. 1) was analyzed using flow cytometry (FACSAria; BD Biosciences, Erembodegem, Belgium) as described in Patrikoski et al (2013).
The effect obtainable with the present medium and method was studied experimentally. The differentiation into osteogenic cells was analysed following alkaline phosphatase (ALP) as early osteogenic marker and mineralization as a marker for advanced osteogenic process. FIG. 2 illustrates protein expression of alkaline phosphatase (ALP) analysis in various media. Results have been normalized to the amount of DNA. BM denotes basal medium, SB a p38 MAP kinase inhibitor SB 202190 and OM an osteogenic medium. In FIG. 2A these differentiation media results (BM+SB and OM) were compared against BM as a control. In FIG. 2B and 2C results from two cell lines from different patients were analyzed in two time points (after 7 and 14 days) to show the independence on the source (patient-lines) of the present medium and inter-patient predictability in that sense. In these experiments, SB was used in a concentration of 2 μM.
In further experiments, the effect of a concentration gradient of two different p38 MAPK inhibitors, i.e. SB 202190 and JX401, on osteogenic differentiation of hASCs was analysed. First, the effect of SB202190 inhibitor in a concentration range of 2 to 10 μM on hASCs was studied in BM culture conditions. […] In this case, the analysis was performed both in BM and osteogenic medium (OM).
(§2) In the above experiments, the basal medium used was DMEM/F12+5% HSPaa serum. Said p38 MAP kinase inhibitor SB 202190 was from SigmaAldrich, while JX401 was from Calbiochem. Osteogenic medium representing the state of the art, was a base medium supplemented with L-ascorbic acid-2phosphate (AsAP), β-glycerolphosphate, and dexamethasone.

[2] = test system: human adipose stem cells (hASCs); assay: Quantitative Alizarin Red mineralization assay of hASCs; assay type: cell-based; settings: for peak concentration (Alizarin Red mineralization): 2 or 5 μM tested
Description: as §1
FIG. 3 represents quantitated Alizarin Red mineralization analysis of ASCs in basal medium, osteogenic medium, with and without SB inhibitor (2 μM) in time point 21 days.
To analyze how p38MAPK inhibitors affect the progression of osteogenic differentiation, Alizarin Red mineralization assay was performed both in BM and OM conditions. In both culture conditions, SB202190 inhibitor peaked at the concentration of 2 μM, but in OM also 5 μM was functional (FIG. 4C).
as §2

Compound	ALP activity of hASCs ([1]; 2 μM in BM, days 7 and 14, patient cell line 15/12 (FIG. 4B))	functional concentration peak (ALP activity) ([1]; in BM, 2/5/10 μM tested, days 7 and 14, patient cell line 15/12 (FIG. 4B)) [µM]	most effective concentration (ALP activity) ([1]; in OM, 2/5/10 μM tested, days 7 and 14, patient cell line 15/12 (FIG. 4B)) [µM]	ALP activity of hASCs ([1]; 2 μM in BM, day 14, patient cell line 1/13 (FIG. 4A))	osteogenic differentiation (ALP) in basal medium compared with osteogenic medium ([1]; 2 μM inhibitor in BM vs OM)	detection of alkaline phosphatase marker / differentiation across patient cell lines ([1]; 2 μM inhibitor, days 7 and 14, different patient cell lines)	ALP activity of hASCs ([1]; 5 μM in BM, day 14, patient cell line 1/13 (FIG. 4A))	ALP activity of hASCs ([1]; 10 μM in BM, day 14, patient cell line 1/13 (FIG. 4A))	Alizarin Red mineralization with and without inhibitor ([2]; 2 μM, day 21, patient cell line 41/12 (FIG. 3))	Alizarin Red mineralization ([2]; 5 μM in OM, day 14, patient cell line 11/13 (FIG. 4C))	peak concentration (Alizarin Red mineralization) ([2]; in BM, day 14, patient cell line 11/13 (FIG. 4C)) [µM]	peak concentration (Alizarin Red mineralization) ([2]; in OM, day 14, patient cell line 11/13 (FIG. 4C)) [µM]
COc1cc(SC)ccc1C(=O)N1CCC(Cc2ccccc2)CC1 [JX401, 1-[2-Methoxy-4-(methylthio)benzoyl]-4-benzylpiperidine]	effective as compared to the highest concentration	5	2	–	–	–	–	–	–	–	–	–
Oc1ccc(-c2nc(-c3ccc(F)cc3)c(-c3ccncc3)[nH]2)cc1 [SB202190, 4-(4-Fluorophenyl)-2-(4-hydroxyphenyl)-5-(4-pyridyl)-1H-imidazole]	–	–	–	clearly enhanced	almost equal level as with use of osteogenic medium	detected in every patient cell line	clearly enhanced	diminished compared to the other two concentrations	enhancer of advanced processes of osteogenesis	functional	2	2
